System: hepatic mRNA expression in STAM™ mice
Test: Murine STAM model of NASH-HCC: hepatic gene expression by quantitative RT-PCR
Format: in vivo, mouse
Settings: n = 8, STAM mice, normalized to non-treated group
Protocol: A study was performed to evaluate the efficacy of gemcabene calcium salt hydrate Crystal Form 1 having a PSD90 of 52 μm as measured by laser light diffraction, in treating non-alcoholic steatosis hepatitis (NASH) in the murine STAM™ model of NASH-HCC.
Briefly, two-day old neonatal C57BL/6 male mice were administered low-dose streptozotocin (STZ), and were subsequently fed a HFC diet from 4 weeks of age. In this model, the mice typically develop liver steatosis and diabetes, reaching steatohepatitis within 3 weeks, followed by cirrhosis within 8 weeks, and carcinoma within 16 weeks. In the current study, mice were administered daily oral gemcabene calcium salt hydrate Crystal Form 1 starting at week 6 of age and were sacrificed at week 9. […] These STAM™ groups were orally administered from week 6 one of the following: water-vehicle, gemcabene calcium salt hydrate Crystal Form 1 at 30, 100 and 300 mg/kg daily, or telmisartan ([…]®) 10 mg/kg daily. […] All groups were sacrificed at week 9. Vehicle, gemcabene calcium salt hydrate Crystal Form 1, or telmisartan were administered by oral gavage once daily.
Various gene expression markers of liver metabolism were evaluated by Real-Time PCR (RT-PCR) in all mouse groups. Total RNA was extracted from liver samples using RNAiso (Takara Bio, Japan) according to the manufacturer's instructions. […] of RNA was reverse-transcribed using a reaction mixture containing 4.4 mM MgCl2 (F. Hoffmann-La Roche, Switzerland), 40 U RNase inhibitor (Toyobo, Japan), 0.5 mM dNTP (Promega, USA), 6.28 μM random hexamer (Promega), 5×first strand buffer (Promega), 10 mM dithiothreitol (Invitrogen, USA) and 200 U MMLV-RT (Invitrogen) in a final volume of 20 μL. The reaction was carried out for 1 hour at 37° C., followed by 5 minutes at 99° C. Real-time PCR was performed using real-time PCR DICE and SYBR premix Taq (Takara Bio). To calculate the relative mRNA expression level, the expression of each gene was normalized to that of reference gene 36B4 (gene symbol: RplpO). Information of PCR-primer sets is described in Tables 37A-37C. Statistical analyses were performed using the Bonferroni Multiple Comparison Test on GraphPad Prism 6 (GraphPad Software Inc., USA). P values <0.05 were considered statistically significant. Results are expressed as mean±SD.
In order to calculate the relative mRNA expression level, the expression of each gene was normalized to that of the reference gene 36B4 (gene symbol: RplpO). The gene expression levels were measured by quantitative RT-PCR. Results were normalized with values for the vehicle-treated normal group. […] Gemcabene calcium salt hydrate Crystal Form 1 (PSD90=52 μm) modulated the mRNA expression of many hepatic genes that play a significant role in the liver homeostasis and injury.

CC(C)(CCCCOCCCCC(C)(C)C(=O)O)C(=O)O [gemcabene, 6-(5-carboxy-5-methyl-hexyloxy)-2,2-dimethyl-hexanoic acid]
ACC1 gene expression (mean ± SD) (30 mg/kg): 1.0 ± 0.1
ACC2 gene expression (mean ± SD) (30 mg/kg): 0.6 ± 0.2
ADH-4 gene expression (mean ± SD) (30 mg/kg): 0.8 ± 0.2
ANGPTL3 gene expression (mean ± SD) (30 mg/kg): 0.7 ± 0.2
ANGPTL4 gene expression (mean ± SD) (30 mg/kg): 2.9 ± 0.5
ANGPTL8 gene expression (mean ± SD) (30 mg/kg): 0.3 ± 0.1
ApoC-III gene expression (mean ± SD) (30 mg/kg): 0.7 ± 0.1
CCR2 gene expression (mean ± SD) (30 mg/kg): 3.3 ± 1.0
CCR5 gene expression (mean ± SD) (30 mg/kg): 2.4 ± 0.9
CRP gene expression (mean ± SD) (30 mg/kg): 0.9 ± 0.2
CXCL1/KC gene expression (mean ± SD) (30 mg/kg): 0.8 ± 0.4
Fetuin-A gene expression (mean ± SD) (30 mg/kg): 1.1 ± 0.4
IL-1β gene expression (mean ± SD) (30 mg/kg): 1.0 ± 0.5
IL-6 gene expression (mean ± SD) (30 mg/kg): 4.6 ± 4.7
LDL receptor gene expression (mean ± SD) (30 mg/kg): 0.9 ± 0.2
LPL gene expression (mean ± SD) (30 mg/kg): 3.8 ± 0.9
MCP-1 gene expression (mean ± SD) (30 mg/kg): 3.2 ± 1.5
MIP-1β gene expression (mean ± SD) (30 mg/kg): 5.4 ± 3.2
MMP-2 gene expression (mean ± SD) (30 mg/kg): 1.7 ± 0.5
NF-κB gene expression (mean ± SD) (30 mg/kg): 1.3 ± 0.2
PNPLA3 gene expression (mean ± SD) (30 mg/kg): 0.3 ± 0.1
SCD1 gene expression (mean ± SD) (30 mg/kg): 0.2 ± 0.1
SREBP-1 gene expression (mean ± SD) (30 mg/kg): 0.9 ± 0.2
Sulf-2 gene expression (mean ± SD) (30 mg/kg): 5.1 ± 1.1
TIMP-1 gene expression (mean ± SD) (30 mg/kg): 9.9 ± 4.9
TNF-α gene expression (mean ± SD) (30 mg/kg): 4.0 ± 1.8
α-SMA gene expression (mean ± SD) (30 mg/kg): 2.6 ± 0.6
ACC1 gene expression (mean ± SD) (100 mg/kg): 0.7 ± 0.1
ACC2 gene expression (mean ± SD) (100 mg/kg): 0.4 ± 0.1
ADH-4 gene expression (mean ± SD) (100 mg/kg): 0.6 ± 0.1
ANGPTL3 gene expression (mean ± SD) (100 mg/kg): 0.4 ± 0.1
ANGPTL4 gene expression (mean ± SD) (100 mg/kg): 1.6 ± 0.3
ANGPTL8 gene expression (mean ± SD) (100 mg/kg): 0.4 ± 0.1
ApoC-III gene expression (mean ± SD) (100 mg/kg): 0.5 ± 0.0
CCR2 gene expression (mean ± SD) (100 mg/kg): 1.6 ± 0.4
CCR5 gene expression (mean ± SD) (100 mg/kg): 1.4 ± 0.3
CRP gene expression (mean ± SD) (100 mg/kg): 0.6 ± 0.1
CXCL1/KC gene expression (mean ± SD) (100 mg/kg): 0.2 ± 0.1
Fetuin-A gene expression (mean ± SD) (100 mg/kg): 0.7 ± 0.1
IL-1β gene expression (mean ± SD) (100 mg/kg): 1.1 ± 0.5
IL-6 gene expression (mean ± SD) (100 mg/kg): 0.9 ± 0.3
LDL receptor gene expression (mean ± SD) (100 mg/kg): 0.9 ± 0.2
LPL gene expression (mean ± SD) (100 mg/kg): 7.4 ± 0.9
MCP-1 gene expression (mean ± SD) (100 mg/kg): 1.7 ± 0.7
MIP-1β gene expression (mean ± SD) (100 mg/kg): 2.3 ± 0.9
MMP-2 gene expression (mean ± SD) (100 mg/kg): 0.5 ± 0.2
NF-κB gene expression (mean ± SD) (100 mg/kg): 0.9 ± 0.1
PNPLA3 gene expression (mean ± SD) (100 mg/kg): 0.2 ± 0.1
SCD1 gene expression (mean ± SD) (100 mg/kg): 0.3 ± 0.1
SREBP-1 gene expression (mean ± SD) (100 mg/kg): 0.9 ± 0.2
Sulf-2 gene expression (mean ± SD) (100 mg/kg): 3.8 ± 0.7
TIMP-1 gene expression (mean ± SD) (100 mg/kg): 3.8 ± 1.6
TNF-α gene expression (mean ± SD) (100 mg/kg): 2.0 ± 0.8
α-SMA gene expression (mean ± SD) (100 mg/kg): 2.4 ± 0.9
ACC1 gene expression (mean ± SD) (300 mg/kg): 0.8 ± 0.1
ACC2 gene expression (mean ± SD) (300 mg/kg): 0.5 ± 0.1
ADH-4 gene expression (mean ± SD) (300 mg/kg): 0.5 ± 0.1
ANGPTL3 gene expression (mean ± SD) (300 mg/kg): 0.4 ± 0.1
ANGPTL4 gene expression (mean ± SD) (300 mg/kg): 1.7 ± 0.3
ANGPTL8 gene expression (mean ± SD) (300 mg/kg): 0.2 ± 0.1
ApoC-III gene expression (mean ± SD) (300 mg/kg): 0.4 ± 0.1
CCR2 gene expression (mean ± SD) (300 mg/kg): 1.7 ± 0.7
CCR5 gene expression (mean ± SD) (300 mg/kg): 1.3 ± 0.3
CRP gene expression (mean ± SD) (300 mg/kg): 0.5 ± 0.1
CXCL1/KC gene expression (mean ± SD) (300 mg/kg): 0.2 ± 0.1
Fetuin-A gene expression (mean ± SD) (300 mg/kg): 0.7 ± 0.1
IL-1β gene expression (mean ± SD) (300 mg/kg): 0.7 ± 0.3
IL-6 gene expression (mean ± SD) (300 mg/kg): 0.6 ± 0.2
LDL receptor gene expression (mean ± SD) (300 mg/kg): 0.8 ± 0.1
LPL gene expression (mean ± SD) (300 mg/kg): 6.9 ± 1.1
MCP-1 gene expression (mean ± SD) (300 mg/kg): 1.6 ± 0.7
MIP-1β gene expression (mean ± SD) (300 mg/kg): 2.8 ± 1.4
MMP-2 gene expression (mean ± SD) (300 mg/kg): 0.9 ± 0.2
NF-κB gene expression (mean ± SD) (300 mg/kg): 0.8 ± 0.1
PNPLA3 gene expression (mean ± SD) (300 mg/kg): 0.2 ± 0.2
SCD1 gene expression (mean ± SD) (300 mg/kg): 0.4 ± 0.2
SREBP-1 gene expression (mean ± SD) (300 mg/kg): 0.7 ± 0.1
Sulf-2 gene expression (mean ± SD) (300 mg/kg): 3.3 ± 0.9
TIMP-1 gene expression (mean ± SD) (300 mg/kg): 4.4 ± 2.1
TNF-α gene expression (mean ± SD) (300 mg/kg): 1.9 ± 0.7
α-SMA gene expression (mean ± SD) (300 mg/kg): 2.5 ± 0.7
